Twelve compounds from PubChem BioAssay (NCI) can be followed below.

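48-hour exposure; five concentrations; linearly interpolated endpoints. At the TGI there is no net growth.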

In one assay the test system is HT29 colon. Kind of assay: inhibition of tumour cell growth, NCI panel, 48 h.
With `COc1ccc(OC)c(C2Cc3cnc4nc(N)nc(N)c4c3C2)c1` (stereo unspecified), the TGI was over 100 µM.

On to `CC(NNC(=O)CC(=O)N(C(=O)c1ccccc1)c1ccc(Cl)cc1)c1cc2ccccc2oc1=O` (stereo unspecified), for which the TGI is over 10 µM.

Regarding `O=[N+]([O-])c1ccc(S(=O)(=O)N=Ic2ccccc2)cc1`, the TGI is over 100 µM.

In turn, `NCCCNCCCCNCCCN` yielded a TGI of 76.5 µM.

In the case of `O=c1c2c(-c3ccccc3)onc2n(-c2ccccc2)c(=O)n1-c1ccccc1`, the TGI turned out to be 45.3 µM.

As for `CCOC(=O)c1cc(C2(O)CCN(CC(C)CC)C2=O)c(-c2cc(C)no2)[nH]1` (stereo unspecified), the TGI was over 100 µM.

Another assay has as its system RPMI-8226 leukemia. In words: inhibition of tumour cell growth, NCI panel, 48 h.
In turn, `Cc1ccc(-c2c3c(n(C4OC(CO)C(O)C(O)C4O)c(=S)c2C#N)CC(C)(C)CC3=O)cc1` (stereo unspecified) gave a TGI of over 100 µM.

The compound `CCOC(=O)c1csc(NC(=O)CN2CCN(C)CC2)n1` had a TGI of over 100 µM.

For `COc1ccc(CN(Cc2ccc(OC)cc2)C(=O)CC2(O)C=CCC2)cc1` (stereo unspecified), the TGI is over 100 µM.

In the case of `COc1ccc(C(OCC2OC(n3cc(C)c(=O)[nH]c3=O)CC2n2cc(Cn3cc(Br)c(=O)[nH]c3=O)nn2)(c2ccccc2)c2ccccc2)cc1` (stereo unspecified), the TGI was over 100 µM.

`CSc1ncnc2c1cnn2CCCCO` registered a TGI of over 100 µM.

`COc1ccc(OC)c(C2Cc3cnc4nc(N)nc(N)c4c3C2)c1` (stereo unspecified) displayed a TGI of 94.7 µM.

`CC(NNC(=O)CC(=O)N(C(=O)c1ccccc1)c1ccc(Cl)cc1)c1cc2ccccc2oc1=O` (stereo unspecified) gave a TGI of over 10 µM.

For `O=[N+]([O-])c1ccc(S(=O)(=O)N=Ic2ccccc2)cc1`, the TGI was over 100 µM.

Turning to `CCOC(=O)C1=C(N)Oc2ccc(Br)cc2C1C(C#N)C(=O)OCC` (stereo unspecified), the TGI worked out at 41.6 µM.

Regarding `NCCCNCCCCNCCCN`, the TGI stood at 1.59 µM.

Compound `O=c1c2c(-c3ccccc3)onc2n(-c2ccccc2)c(=O)n1-c1ccccc1` returned a TGI of over 100 µM.

`CCOC(=O)c1cc(C2(O)CCN(CC(C)CC)C2=O)c(-c2cc(C)no2)[nH]1` (stereo unspecified) came in with a TGI of over 100 µM.

Another assay has as its system HCT-116 colon. In words: inhibition of tumour cell growth, NCI panel, 48 h.
Take `Cc1ccc(-c2c3c(n(C4OC(CO)C(O)C(O)C4O)c(=S)c2C#N)CC(C)(C)CC3=O)cc1` (stereo unspecified): the TGI is over 100 µM.

Compound `COc1ccc(CN(Cc2ccc(OC)cc2)C(=O)CC2(O)C=CCC2)cc1` (stereo unspecified) had a TGI of over 100 µM.

`COc1ccc(C(OCC2OC(n3cc(C)c(=O)[nH]c3=O)CC2n2cc(Cn3cc(Br)c(=O)[nH]c3=O)nn2)(c2ccccc2)c2ccccc2)cc1` (stereo unspecified) showed a TGI of over 100 µM.

`CSc1ncnc2c1cnn2CCCCO` registered a TGI of over 100 µM.

`COc1ccc(OC)c(C2Cc3cnc4nc(N)nc(N)c4c3C2)c1` (stereo unspecified): the TGI came out at 55.1 µM.

Consider `CC(NNC(=O)CC(=O)N(C(=O)c1ccccc1)c1ccc(Cl)cc1)c1cc2ccccc2oc1=O` (stereo unspecified), for which the TGI is over 10 µM.

As for `O=[N+]([O-])c1ccc(S(=O)(=O)N=Ic2ccccc2)cc1`, the TGI was over 100 µM.

In the case of `CCOC(=O)C1=C(N)Oc2ccc(Br)cc2C1C(C#N)C(=O)OCC` (stereo unspecified), the TGI turned out to be 42.2 µM.

As for `NCCCNCCCCNCCCN`, the TGI is 8.78 µM.

As to `O=c1c2c(-c3ccccc3)onc2n(-c2ccccc2)c(=O)n1-c1ccccc1`, the TGI is over 100 µM.

In the case of `CCOC(=O)c1cc(C2(O)CCN(CC(C)CC)C2=O)c(-c2cc(C)no2)[nH]1` (stereo unspecified), the TGI was over 100 µM.

For the next assay, the system named is HOP-92 NSCLC. Kind of assay: inhibition of tumour cell growth, NCI panel, 48 h.
`Cc1ccc(-c2c3c(n(C4OC(CO)C(O)C(O)C4O)c(=S)c2C#N)CC(C)(C)CC3=O)cc1` (stereo unspecified) returned a TGI of over 100 µM.

Compound `CCOC(=O)c1csc(NC(=O)CN2CCN(C)CC2)n1` came in with a TGI of over 100 µM.

For the compound `COc1ccc(CN(Cc2ccc(OC)cc2)C(=O)CC2(O)C=CCC2)cc1` (stereo unspecified), the TGI is over 100 µM.

`COc1ccc(C(OCC2OC(n3cc(C)c(=O)[nH]c3=O)CC2n2cc(Cn3cc(Br)c(=O)[nH]c3=O)nn2)(c2ccccc2)c2ccccc2)cc1` (stereo unspecified) had a TGI of over 100 µM.

Take `CSc1ncnc2c1cnn2CCCCO`: the TGI was over 100 µM.

With `COc1ccc(OC)c(C2Cc3cnc4nc(N)nc(N)c4c3C2)c1` (stereo unspecified), the TGI worked out at 53.8 µM.

For `CC(NNC(=O)CC(=O)N(C(=O)c1ccccc1)c1ccc(Cl)cc1)c1cc2ccccc2oc1=O` (stereo unspecified), the TGI was over 10 µM.

Compound `O=[N+]([O-])c1ccc(S(=O)(=O)N=Ic2ccccc2)cc1` returned a TGI of over 100 µM.

`CCOC(=O)C1=C(N)Oc2ccc(Br)cc2C1C(C#N)C(=O)OCC` (stereo unspecified) came in with a TGI of 37 µM.

Consider `NCCCNCCCCNCCCN`, for which the TGI is 3.41 µM.

`O=c1c2c(-c3ccccc3)onc2n(-c2ccccc2)c(=O)n1-c1ccccc1` showed a TGI of over 100 µM.

The compound `CCOC(=O)c1cc(C2(O)CCN(CC(C)CC)C2=O)c(-c2cc(C)no2)[nH]1` (stereo unspecified) had a TGI of over 100 µM.

The test system of the next assay is UO-31 renal. In words: inhibition of tumour cell growth, NCI panel, 48 h.
Consider `Cc1ccc(-c2c3c(n(C4OC(CO)C(O)C(O)C4O)c(=S)c2C#N)CC(C)(C)CC3=O)cc1` (stereo unspecified), for which the TGI is over 100 µM.

Compound `CCOC(=O)c1csc(NC(=O)CN2CCN(C)CC2)n1` yielded a TGI of over 100 µM.

As to `COc1ccc(CN(Cc2ccc(OC)cc2)C(=O)CC2(O)C=CCC2)cc1` (stereo unspecified), the TGI was over 100 µM.

Take `COc1ccc(C(OCC2OC(n3cc(C)c(=O)[nH]c3=O)CC2n2cc(Cn3cc(Br)c(=O)[nH]c3=O)nn2)(c2ccccc2)c2ccccc2)cc1` (stereo unspecified): the TGI was over 100 µM.

Consider `CSc1ncnc2c1cnn2CCCCO`, for which the TGI is over 100 µM.

Take `COc1ccc(OC)c(C2Cc3cnc4nc(N)nc(N)c4c3C2)c1` (stereo unspecified): the TGI is over 100 µM.

In turn, `CC(NNC(=O)CC(=O)N(C(=O)c1ccccc1)c1ccc(Cl)cc1)c1cc2ccccc2oc1=O` (stereo unspecified) displayed a TGI of 0.275 µM.

Regarding `O=[N+]([O-])c1ccc(S(=O)(=O)N=Ic2ccccc2)cc1`, the TGI was over 100 µM.

With `CCOC(=O)C1=C(N)Oc2ccc(Br)cc2C1C(C#N)C(=O)OCC` (stereo unspecified), the TGI stood at 35.8 µM.

For `NCCCNCCCCNCCCN`, the TGI was 5.02 µM.

Consider `O=c1c2c(-c3ccccc3)onc2n(-c2ccccc2)c(=O)n1-c1ccccc1`, for which the TGI is 30.4 µM.

`CCOC(=O)c1cc(C2(O)CCN(CC(C)CC)C2=O)c(-c2cc(C)no2)[nH]1` (stereo unspecified): the TGI was over 100 µM.

The test system of the next assay is MCF7 breast. In words: inhibition of tumour cell growth, NCI panel, 48 h.
In turn, `Cc1ccc(-c2c3c(n(C4OC(CO)C(O)C(O)C4O)c(=S)c2C#N)CC(C)(C)CC3=O)cc1` (stereo unspecified) registered a TGI of over 100 µM.

Turning to `CCOC(=O)c1csc(NC(=O)CN2CCN(C)CC2)n1`, the TGI is over 100 µM.

On to `COc1ccc(CN(Cc2ccc(OC)cc2)C(=O)CC2(O)C=CCC2)cc1` (stereo unspecified), for which the TGI was over 100 µM.
